According to patent publication US11197933B2, “Polysubunit opioid prodrugs resistant to overdose and abuse” (Elysium Therapeutics, Inc., priority 2017, dated 2021):

Legend:
trypsin [1] = target: T1, trypsin (Bos taurus, UniProt P00760); assay: Trypsin inhibitory potency (key differentiating attributes, Table 5); format: biochemical
T1 construct: gene PRSS1
T1 sequence (P00760 24-246): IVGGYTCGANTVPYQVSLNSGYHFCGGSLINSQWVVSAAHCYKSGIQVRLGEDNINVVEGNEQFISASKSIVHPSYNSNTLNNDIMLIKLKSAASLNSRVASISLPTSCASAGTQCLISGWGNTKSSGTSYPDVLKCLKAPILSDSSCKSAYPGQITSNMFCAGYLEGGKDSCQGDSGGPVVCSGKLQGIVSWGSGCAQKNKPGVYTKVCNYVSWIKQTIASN
Source text: (§1) As mentioned previously, a wide range of targeted oral pharmacokinetic profiles can be achieved by administering pharmaceutical compositions containing specific combinations of different polysubunit molecules to subjects. For example, the different polysubunit molecules contained in the composition may differ with regard to (i) the specific opioid agonists delivered, (ii) the rates at which the opioid agonist is delivered in vivo (i.e. to modify the oral pharmacokinetic profile of the delivered opioid), and (iii) the combined inhibitory potency of the GI enzyme inhibiting subunits [i.e. to modify the overdose protection profile and/or the prescribed dose strengths of the delivered opioid agonist(s)]. Table 5 below provides non-limiting examples of compounds of the invention with their key differentiating attributes. Table 6 discusses scenarios and rationales for using the compounds presented in Table 5 in combination with each other, in useful pharmaceutical formulations of the invention.

trypsin [2] = target: T1, trypsin; assay: Inhibition of trypsin-catalyzed hydrolysis of BANA (percent BANA remaining vs. time); format: biochemical; conditions: for Ability to inhibit trypsin (result in words): increasing concentrations, BANA substrate
Description: This example describes in vitro experiments with a compound of the disclosure to provide a mechanism of overdose protection.
The effect of increasing concentrations of compounds II-D-11, II-D-23, II-D-71c and II-D-71b on the rate and extent of the trypsin-catalyzed hydrolysis of a commercially available trypsin substrate Nα-Benzoyl-L-arginine 4-nitroanilide hydrochloride (BANA) was evaluated in the presence of trypsin (2,000 BAEE activity) in a pH 7.4 phosphate buffer at 37° C. in vitro. Both buffer solution alone (i.e. no trypsin) and trypsin containing buffer solution (i.e. no test compounds) controls were run contemporaneously.

[3] = Rate of release of opioid agonist (key differentiating attributes, Table 5); conditions: for Rate of Release of Opioid Against: in words (Fast/Slow); for half-life: read-out: Rate of Release of Opioid Against: T1/2
Source text: as §1

[4] = after oral doses; cited from earlier work
[5] = in man; cited from earlier work

With COc1ccc2c3c1O[C@H]1C(OC(=O)N4CCC(C(=O)NCCCC[C@H](NC(=O)OCc5ccccc5)C(=O)NCCOc5ccc(C(=O)Oc6ccc(NC(=N)N)cc6)cc5)CC4CNC(=O)[C@@H](CCCNC(=N)N)NC(=O)CNC(C)=O)=CC[C@H]4[C@@H](C2)N(C)CC[C@]314 (stereo partly drawn) [II-D-71c] the “Trypsin Inhibitory Potency” value (trypsin [1]) was “High”, the “Percent BANA remaining” value (trypsin [2]; 1 uM compound, 2 minutes, pH 7.4, 37° C.) was 81.5% and the “Percent BANA remaining” value (trypsin [2]; 1 uM compound, 13 minutes, pH 7.4, 37° C.) was 0%. For the same molecule, the “Percent BANA remaining” value (trypsin [2]; 1 uM compound, 24 minutes, pH 7.4, 37° C.) was 0%, the “Percent BANA remaining” value (trypsin [2]; 1 uM compound, 35 minutes, pH 7.4, 37° C.) was 0% and the “Percent BANA remaining” value (trypsin [2]; 1 uM compound, 46 minutes, pH 7.4, 37° C.) was 0%. The “Percent BANA remaining” value (trypsin [2]; 1 uM compound, 57 minutes, pH 7.4, 37° C.) was 0%, the “Percent BANA remaining” value (trypsin [2]; 1 uM compound, 68 minutes, pH 7.4, 37° C.) was 0% and the “Percent BANA remaining” value (trypsin [2]; 10 uM compound, 2 minutes, pH 7.4, 37° C.) was 76.5%. The “Percent BANA remaining” value (trypsin [2]; 10 uM compound, 13 minutes, pH 7.4, 37° C.) was 58.5%, the “Percent BANA remaining” value (trypsin [2]; 10 uM compound, 24 minutes, pH 7.4, 37° C.) was 42.5% and the “Percent BANA remaining” value (trypsin [2]; 10 uM compound, 35 minutes, pH 7.4, 37° C.) was 26.0%. For the same molecule, the “Percent BANA remaining” value (trypsin [2]; 10 uM compound, 46 minutes, pH 7.4, 37° C.) was 13.0%, the “Percent BANA remaining” value (trypsin [2]; 10 uM compound, 57 minutes, pH 7.4, 37° C.) was 4.7% and the “Percent BANA remaining” value (trypsin [2]; 10 uM compound, 68 minutes, pH 7.4, 37° C.) was 0%. The “Percent BANA remaining” value (trypsin [2]; 100 uM compound, 2 minutes, pH 7.4, 37° C.) was 100%, the “Percent BANA remaining” value (trypsin [2]; 100 uM compound, 13 minutes, pH 7.4, 37° C.) was 100% and the “Percent BANA remaining” value (trypsin [2]; 100 uM compound, 24 minutes, pH 7.4, 37° C.) was 99%. For the same molecule, the “Percent BANA remaining” value (trypsin [2]; 100 uM compound, 35 minutes, pH 7.4, 37° C.) was 100%, the “Percent BANA remaining” value (trypsin [2]; 100 uM compound, 46 minutes, pH 7.4, 37° C.) was 100% and the “Percent BANA remaining” value (trypsin [2]; 100 uM compound, 57 minutes, pH 7.4, 37° C.) was 100%. For the same molecule, the “Percent BANA remaining” value (trypsin [2]; 100 uM compound, 68 minutes, pH 7.4, 37° C.) was 100%, the “Percent BANA remaining” value (trypsin [2]; 1 mM compound, 2 minutes, pH 7.4, 37° C.) was 100% and the “Percent BANA remaining” value (trypsin [2]; 1 mM compound, 13 minutes, pH 7.4, 37° C.) was 100%. The “Percent BANA remaining” value (trypsin [2]; 1 mM compound, 24 minutes, pH 7.4, 37° C.) was 99%, the “Percent BANA remaining” value (trypsin [2]; 1 mM compound, 35 minutes, pH 7.4, 37° C.) was 100% and the “Percent BANA remaining” value (trypsin [2]; 1 mM compound, 46 minutes, pH 7.4, 37° C.) was 100%. For the same molecule, the “Percent BANA remaining” value (trypsin [2]; 1 mM compound, 57 minutes, pH 7.4, 37° C.) was 100%, the “Percent BANA remaining” value (trypsin [2]; 1 mM compound, 68 minutes, pH 7.4, 37° C.) was 100% and the “Ability to inhibit trypsin (result in words)” value (trypsin [2]; pH 7.4, 37° C.) was “progressively inhibit trypsin in a concentration dependent manner”. The “Rate of Release of Opioid Against” value [3] was “Fast” and the half-life [3] was ~10 min.
For COc1ccc2c3c1O[C@H]1C(OC(=O)N4CCC(C(=O)NCCCC[C@H](NC(=O)OCc5ccccc5)C(=O)NCCOc5ccc(C(=O)Oc6cccc(NC(=N)N)c6)cc5)CC4CNC(=O)[C@@H](CCCNC(=N)N)NC(=O)CNC(C)=O)=CC[C@H]4[C@@H](C2)N(C)CC[C@]314 (stereo partly drawn) [II-D-71b], the “Trypsin Inhibitory Potency” value (trypsin [1]) was “Low”, the “Percent BANA remaining” value (trypsin [2]; compound 10 uM, 2 minutes, trypsin 2,000 BAEE activity, pH 7.4 phosphate buffer, 37° C.) was 87.9% and the “Percent BANA remaining” value (trypsin [2]; compound 10 uM, 13 minutes, trypsin 2,000 BAEE activity, pH 7.4 phosphate buffer, 37° C.) was 0%. For the same molecule, the “Percent BANA remaining” value (trypsin [2]; compound 10 uM, 24 minutes, trypsin 2,000 BAEE activity, pH 7.4 phosphate buffer, 37° C.) was 0%, the “Percent BANA remaining” value (trypsin [2]; compound 10 uM, 35 minutes, trypsin 2,000 BAEE activity, pH 7.4 phosphate buffer, 37° C.) was 0% and the “Percent BANA remaining” value (trypsin [2]; compound 10 uM, 46 minutes, trypsin 2,000 BAEE activity, pH 7.4 phosphate buffer, 37° C.) was 0%. For the same molecule, the “Percent BANA remaining” value (trypsin [2]; compound 10 uM, 57 minutes, trypsin 2,000 BAEE activity, pH 7.4 phosphate buffer, 37° C.) was 0%, the “Percent BANA remaining” value (trypsin [2]; compound 10 uM, 68 minutes, trypsin 2,000 BAEE activity, pH 7.4 phosphate buffer, 37° C.) was 0% and the “Percent BANA remaining” value (trypsin [2]; compound 100 uM, 2 minutes, trypsin 2,000 BAEE activity, pH 7.4 phosphate buffer, 37° C.) was 93.1%. For the same molecule, the “Percent BANA remaining” value (trypsin [2]; compound 100 uM, 13 minutes, trypsin 2,000 BAEE activity, pH 7.4 phosphate buffer, 37° C.) was 15.1%, the “Percent BANA remaining” value (trypsin [2]; compound 100 uM, 24 minutes, trypsin 2,000 BAEE activity, pH 7.4 phosphate buffer, 37° C.) was 2.4% and the “Percent BANA remaining” value (trypsin [2]; compound 100 uM, 35 minutes, trypsin 2,000 BAEE activity, pH 7.4 phosphate buffer, 37° C.) was 2.3%. For the same molecule, the “Percent BANA remaining” value (trypsin [2]; compound 100 uM, 46 minutes, trypsin 2,000 BAEE activity, pH 7.4 phosphate buffer, 37° C.) was 1.4%, the “Percent BANA remaining” value (trypsin [2]; compound 100 uM, 57 minutes, trypsin 2,000 BAEE activity, pH 7.4 phosphate buffer, 37° C.) was 0% and the “Percent BANA remaining” value (trypsin [2]; compound 100 uM, 68 minutes, trypsin 2,000 BAEE activity, pH 7.4 phosphate buffer, 37° C.) was 0%. The “Percent BANA remaining” value (trypsin [2]; compound 1 mM, 2 minutes, trypsin 2,000 BAEE activity, pH 7.4 phosphate buffer, 37° C.) was 100%, the “Percent BANA remaining” value (trypsin [2]; compound 1 mM, 13 minutes, trypsin 2,000 BAEE activity, pH 7.4 phosphate buffer, 37° C.) was 76.1% and the “Percent BANA remaining” value (trypsin [2]; compound 1 mM, 24 minutes, trypsin 2,000 BAEE activity, pH 7.4 phosphate buffer, 37° C.) was 66.6%. The “Percent BANA remaining” value (trypsin [2]; compound 1 mM, 35 minutes, trypsin 2,000 BAEE activity, pH 7.4 phosphate buffer, 37° C.) was 59.6%, the “Percent BANA remaining” value (trypsin [2]; compound 1 mM, 46 minutes, trypsin 2,000 BAEE activity, pH 7.4 phosphate buffer, 37° C.) was 56.3% and the “Percent BANA remaining” value (trypsin [2]; compound 1 mM, 57 minutes, trypsin 2,000 BAEE activity, pH 7.4 phosphate buffer, 37° C.) was 55.7%. The “Percent BANA remaining” value (trypsin [2]; compound 1 mM, 68 minutes, trypsin 2,000 BAEE activity, pH 7.4 phosphate buffer, 37° C.) was 53.7%, the “Ability to inhibit trypsin (result in words)” value (trypsin [2]; pH 7.4, 37° C.) was “progressively inhibit trypsin in a concentration dependent manner” and the “Rate of Release of Opioid Against” value [3] was “Fast”. It also gave a half-life [3] of ~10 min.
For C[C@H]1[C@H]2Cc3ccc(O)cc3[C@]1(C)CCN2CC1CC1 [cyclazocine], the Duration of action [4] is given as ~24 h.
For O=C1CC[C@@]2(O)[C@H]3Cc4ccc(O)c5c4[C@@]2(CCN3CC2CC2)[C@H]1O5 [naltrexone, Naltrexone], the Duration of action [4] is given as ~24 h and the Oral bioavailability [5] is given as 5-40%.
